Source: ChEMBL document CHEMBL1201862, “PubChem BioAssay data set” (2004)
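1) Cells in 96-well plates. 2) Compound, 48 h, 5 concentrations. 3) Linear interpolation between surrounding doses. 4) Unreached endpoint = highest concentration. The concentration for 50% growth inhibition is given as GI50.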 Activity calls are given as the source filed them. Rule as the data show it: active = GI50 up to about 1.1 µM and inactive = higher.

Key:
Assay in all cases: NCI tumour cell line growth inhibition, 48 h
786-0 = system: 786-0
Malme-3M = system: Malme-3M
HOP-92 = system: HOP-92
DU-145 = system: DU-145
SF-539 = system: SF-539
SW-620 = system: SW-620
SK-OV-3 = system: SK-OV-3
EKVX = system: EKVX
U-251 = system: U-251
MCF7 = system: MCF7
NCI/ADR-RES = system: NCI/ADR-RES
HOP-62 = system: HOP-62
NCI-H522 = system: NCI-H522
M14 = system: M14
SN12C = system: SN12C
MOLT-4 = system: MOLT-4
KM12 = system: KM12
A498 = system: A498
RXF 393 = system: RXF 393
MDA-MB-231 = system: MDA-MB-231
SNB-75 = system: SNB-75
BT-549 = system: BT-549
Hs-578T = system: Hs-578T
HCT-116 = system: HCT-116
LOX IMVI = system: LOX IMVI
MDA-MB-435 = system: MDA-MB-435
HCT-15 = system: HCT-15
RPMI-8226 = system: RPMI-8226
HT-29 = system: HT-29
A549 = system: A549
SK-MEL-28 = system: SK-MEL-28
K562 = system: K562
SF-268 = system: SF-268
SK-MEL-5 = system: SK-MEL-5
T47D = system: T47D
OVCAR-5 = system: OVCAR-5
OVCAR-8 = system: OVCAR-8
NCI-H226 = system: NCI-H226
HCC 2998 = system: HCC 2998
SNB-19 = system: SNB-19
UACC-257 = system: UACC-257
SK-MEL-2 = system: SK-MEL-2
PC-3 = system: PC-3
SF-295 = system: SF-295
TK-10 = system: TK-10
IGROV-1 = system: IGROV-1
UO-31 = system: UO-31
NCI-H23 = system: NCI-H23
SR = system: SR
ACHN = system: ACHN
OVCAR-4 = system: OVCAR-4
COLO 205 = system: COLO 205
CCRF-CEM = system: CCRF-CEM
HL-60 = system: HL-60
UACC-62 = system: UACC-62
OVCAR-3 = system: OVCAR-3
MDA-N = system: MDA-N
NCI-H460 = system: NCI-H460

## O=S(=O)(Cc1nc2ccccc2s1)c1nc2ccccc2s1
786-0
  GI50: 17.4 µM (inactive)
Malme-3M
  GI50: 11.3 µM (inactive)
HOP-92
  GI50: 12.9 µM (inactive)
DU-145
  GI50: 17.9 µM (inactive)
SF-539
  GI50: 21.2 µM (inactive)
SW-620
  GI50: 17.2 µM (inactive)
SK-OV-3
  GI50: 37 µM (inactive)
EKVX
  GI50: 18.5 µM (inactive)
U-251
  GI50: 18.5 µM (inactive)
MCF7
  GI50: 18.7 µM (inactive)
NCI/ADR-RES
  GI50: 43.2 µM (inactive)
HOP-62
  GI50: 49.3 µM (inactive)
NCI-H522
  GI50: 15.5 µM (inactive)
M14
  GI50: 13 µM (inactive)
SN12C
  GI50: 16.8 µM (inactive)
MOLT-4
  GI50: 17.6 µM (inactive)
KM12
  GI50: 18.2 µM (inactive)
A498
  GI50: 19.2 µM (inactive)
RXF 393
  GI50: 22.5 µM (inactive)
MDA-MB-231
  GI50: 17.1 µM (inactive)
SNB-75
  GI50: 18.3 µM (inactive)
BT-549
  GI50: 16.5 µM (inactive)
Hs-578T
  GI50: 19.9 µM (inactive)
HCT-116
  GI50: 13.9 µM (inactive)
LOX IMVI
  GI50: 10 µM (inactive)
MDA-MB-435
  GI50: 15.2 µM (inactive)
HCT-15
  GI50: 16.3 µM
RPMI-8226
  GI50: 16 µM (inactive)
HT-29
  GI50: 18.2 µM (inactive)
A549
  GI50: 29.3 µM (inactive)
SK-MEL-28
  GI50: 15.6 µM (inactive)
K562
  GI50: 12.6 µM (inactive)
SF-268
  GI50: 15.6 µM (inactive)
SK-MEL-5
  GI50: 12.9 µM (inactive)
T47D
  GI50: 21.3 µM (inactive)
OVCAR-5
  GI50: 20 µM (inactive)
OVCAR-8
  GI50: 19.4 µM (inactive)
NCI-H226
  GI50: 26.5 µM (inactive)
HCC 2998
  GI50: 16.4 µM (inactive)
SNB-19
  GI50: 21.5 µM (inactive)
UACC-257
  GI50: 15.8 µM (inactive)
SK-MEL-2
  GI50: 17.4 µM (inactive)
PC-3
  GI50: 17 µM (inactive)
SF-295
  GI50: 26.2 µM (inactive)
TK-10
  GI50: 20 µM (inactive)
IGROV-1
  GI50: 18.7 µM (inactive)
UO-31
  GI50: 16.7 µM (inactive)
NCI-H23
  GI50: 15.6 µM (inactive)
SR
  GI50: 4.72 µM (inactive)
ACHN
  GI50: 16.3 µM (inactive)
OVCAR-4
  GI50: 16.9 µM (inactive)
COLO 205
  GI50: 17.9 µM (inactive)
CCRF-CEM
  GI50: 5.5 µM (inactive)
HL-60
  GI50: 8.11 µM (inactive)
UACC-62
  GI50: 16 µM (inactive)
OVCAR-3
  GI50: 14.4 µM (inactive)
MDA-N
  GI50: 15.5 µM (inactive)
NCI-H460
  GI50: 38 µM (inactive)
